Where “and” joins values, the source holds several entries; their conditions need not be identical. Identical values can stand only once. Counter-ions that a name gives are not always drawn.
How the values were obtained:
[1] = target: Human β2 adrenoceptor (Homo sapiens, UniProt P07550); conditions: read-out: B2 binding affinity
[2] = target: Human M3 receptor (Homo sapiens, UniProt P20309); conditions: read-out: M3 binding affinity
Sequence of Human M3 receptor (P20309 whole entry): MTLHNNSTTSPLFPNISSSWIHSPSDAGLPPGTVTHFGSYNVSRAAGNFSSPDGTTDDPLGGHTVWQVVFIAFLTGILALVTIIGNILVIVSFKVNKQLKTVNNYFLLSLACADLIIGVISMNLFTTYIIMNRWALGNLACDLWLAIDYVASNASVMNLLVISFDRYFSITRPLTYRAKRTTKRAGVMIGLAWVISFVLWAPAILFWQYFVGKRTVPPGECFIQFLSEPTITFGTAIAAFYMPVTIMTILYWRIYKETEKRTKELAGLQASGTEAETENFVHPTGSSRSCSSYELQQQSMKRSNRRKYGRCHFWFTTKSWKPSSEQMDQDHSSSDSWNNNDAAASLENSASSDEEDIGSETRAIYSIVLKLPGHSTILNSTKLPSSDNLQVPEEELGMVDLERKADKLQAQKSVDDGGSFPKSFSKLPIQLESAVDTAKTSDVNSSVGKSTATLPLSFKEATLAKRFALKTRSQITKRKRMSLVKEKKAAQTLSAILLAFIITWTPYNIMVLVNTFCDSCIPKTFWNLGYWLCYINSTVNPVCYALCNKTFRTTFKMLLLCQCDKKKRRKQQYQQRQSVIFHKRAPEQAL

Sequence of Human β2 adrenoceptor (P07550 whole entry): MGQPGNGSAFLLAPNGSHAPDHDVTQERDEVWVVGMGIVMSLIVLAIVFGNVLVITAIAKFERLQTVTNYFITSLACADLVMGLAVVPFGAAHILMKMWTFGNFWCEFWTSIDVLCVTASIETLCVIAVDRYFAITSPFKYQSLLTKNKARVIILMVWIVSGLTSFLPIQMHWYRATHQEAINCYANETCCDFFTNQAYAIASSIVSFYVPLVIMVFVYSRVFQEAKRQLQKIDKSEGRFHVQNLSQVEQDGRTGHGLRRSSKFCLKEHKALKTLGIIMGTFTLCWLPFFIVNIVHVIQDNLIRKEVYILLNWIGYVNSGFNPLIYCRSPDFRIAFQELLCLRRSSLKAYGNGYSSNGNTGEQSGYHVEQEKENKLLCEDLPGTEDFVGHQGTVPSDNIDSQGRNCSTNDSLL

Row | Compound | IC50 [1] | IC50 [2]
1 | O=C(c1ccc(CCNC[C@H](O)c2ccc(O)c3[nH]c(=O)ccc23)cc1)N1CC(COc2cccc([C@](O)(C(=O)OCC3CCN(Cc4ccccc4)CC3)c3ccccc3)c2)C1 [Compound 42, (S)-(1-benzylpiperidin-4-yl)methyl 2-hydroxy-2-(3-((1-(4-(2-(((R)-2-hydroxy-2-(8-hydroxy-2-oxo-1,2-dihydroquinolin-5-yl)ethyl)amino)ethyl)benzoyl)azetidin-3-yl)methoxy)phenyl)-2-phenylacetate] | < 0.3 nM | < 0.3 nM
2 | COc1cc(NC(=O)COc2cccc([C@](O)(C(=O)OCC3CCN(Cc4ccccc4)CC3)c3ccccc3)c2)ccc1CNC[C@H](O)c1ccc(O)c2[nH]c(=O)ccc12 [Compound 42A, (S)-(1-benzylpiperidin-4-yl)methyl 2-hydroxy-2-(3-(2-((4-((((R)-2-hydroxy-2-(8-hydroxy-2-oxo-1,2-dihydroquinolin-5-yl)ethyl)amino)methyl)-3-methoxyphenyl)amino)-2-oxoethoxy)phenyl)-2-phenylacetate] | 0.3 to 3 nM | < 0.3 nM
3 | COc1cc(NC(=O)COc2cccc([C@](O)(C(=O)OCC3CCN(Cc4ccccc4)CC3)c3ccccc3)c2)c(F)cc1CNC[C@H](O)c1ccc(O)c2[nH]c(=O)ccc12 [Compound 42B, (1-benzylpiperidin-4-yl)methyl (S)-2-(3-(2-((2-fluoro-4-((((R)-2-hydroxy-2-(8-hydroxy-2-oxo-1,2-dihydroquinolin-5-yl)ethyl)amino)methyl)-5-methoxyphenyl)amino)-2-oxoethoxy)phenyl)-2-hydroxy-2-phenylacetate] | < 0.3 nM | < 0.3 nM and 0.3 to 3 nM
4 | O=C(NCc1ccc(COc2cccc([C@](O)(C(=O)OCC3CCN(Cc4ccccc4)CC3)c3ccccc3)c2)cc1)c1ccc(CCNC[C@H](O)c2ccc(O)c3[nH]c(=O)ccc23)cc1 [Compound 42C, (1-benzylpiperidin-4-yl)methyl (S)-2-hydroxy-2-(3-((4-((4-(2-(((R)-2-hydroxy-2-(8-hydroxy-2-oxo-1,2-dihydroquinolin-5-yl)ethyl)amino)ethyl)benzamido)methyl)benzyl)oxy)phenyl)-2-phenylacetate] | < 0.3 nM | 0.3 to 3 nM
5 | O=C(NCc1ccc(COc2cccc([C@](O)(C(=O)OCC3CCN(Cc4ccccc4)CC3)c3ccccc3)c2)cc1)c1ccc(CNC[C@H](O)c2ccc(O)c3[nH]c(=O)ccc23)cc1 [Compound 42D, (1-benzylpiperidin-4-yl)methyl (S)-2-hydroxy-2-(3-((4-((4-((((R)-2-hydroxy-2-(8-hydroxy-2-oxo-1,2-dihydroquinolin-5-yl)ethyl)amino)methyl)benzamido)methyl)benzyl)oxy)phenyl)-2-phenylacetate] | < 0.3 nM | 0.3 to 3 nM
6 | COc1cc(CNC[C@H](O)c2ccc(O)c3[nH]c(=O)ccc23)ccc1C(=O)NCc1ccc(COc2cccc([C@](O)(C(=O)OCC3CCN(Cc4ccccc4)CC3)c3ccccc3)c2)cc1 [Compound 42E, (1-benzylpiperidin-4-yl)methyl (S)-2-hydroxy-2-(3-((4-((4-((((R)-2-hydroxy-2-(8-hydroxy-2-oxo-1,2-dihydroquinolin-5-yl)ethyl)amino)methyl)-2-methoxybenzamido)methyl)benzyl)oxy)phenyl)-2-phenylacetate] | < 0.3 nM | 0.3 to 3 nM
7 | COc1cc(C(=O)NCc2ccc(COc3cccc([C@](O)(C(=O)OCC4CCN(Cc5ccccc5)CC4)c4ccccc4)c3)cc2)ccc1CNC[C@H](O)c1ccc(O)c2[nH]c(=O)ccc12 [Compound 42F, (1-benzylpiperidin-4-yl)methyl (S)-2-hydroxy-2-(3-((4-((4-((((R)-2-hydroxy-2-(8-hydroxy-2-oxo-1,2-dihydroquinolin-5-yl)ethyl)amino)methyl)-3-methoxybenzamido)methyl)benzyl)oxy)phenyl)-2-phenylacetate] | < 0.3 nM | 0.3 to 3 nM
8 | O=C(NCCCNC[C@H](O)c1ccc(O)c2[nH]c(=O)ccc12)c1ccc(COc2cccc([C@](O)(C(=O)OCC3CCN(Cc4ccccc4)CC3)c3ccccc3)c2)cc1 [Compound 43, (S)-(1-Benzylpiperidin-4-yl)methyl 2-hydroxy-2-(3-((4-((3-(((R)-2-hydroxy-2-(8-hydroxy-2-oxo-1,2-dihydroquinolin-5-yl)ethyl)amino)propyl)carbamoyl)benzyl)oxy)phenyl)-2-phenylacetate] | < 0.3 nM | < 0.3 nM
9 | O=C(NCCCNC[C@H](O)c1ccc(O)c2[nH]c(=O)ccc12)c1ccc(COc2cccc([C@@](O)(C(=O)OCC3CCN(Cc4ccccc4)CC3)c3ccccc3)c2)cc1 [Compound 44, (R)-(1-Benzylpiperidin-4-yl)methyl 2-hydroxy-2-(3-((4-((3-(((R)-2-hydroxy-2-(8-hydroxy-2-oxo-1,2-dihydroquinolin-5-yl)ethyl)amino)propyl)carbamoyl)benzyl)oxy)phenyl)-2-phenylacetate] | < 0.3 nM | 0.3 to 3 nM
10 | O=C(c1cccc(COc2cccc([C@](O)(C(=O)OCC3CCN(Cc4ccccc4)CC3)c3ccccc3)c2)c1)N(CCCNC[C@H](O)c1ccc(O)c2[nH]c(=O)ccc12)Cc1ccccc1 [Compound 45, (S)-(1-Benzylpiperidin-4-yl)methyl 2-(3-((3-(benzyl(3-(((R)-2-hydroxy-2-(8-hydroxy-2-oxo-1,2-dihydroquinolin-5-yl)ethyl)amino)propyl)carbamoyl)benzyl)oxy)phenyl)-2-hydroxy-2-phenylacetate] | 0.3 to 3 nM | 0.3 to 3 nM
11 | O=C(NCCCCNC[C@H](O)c1ccc(O)c2[nH]c(=O)ccc12)c1cccc(C(O)(C(=O)OCC2CCN(Cc3ccccc3)CC2)c2ccccc2)c1 (stereo partly drawn) [Compound 47, (1-benzylpiperidin-4-yl)methyl 2-hydroxy-2-(3-((4-(((R)-2-hydroxy-2-(8-hydroxy-2-oxo-1,2-dihydroquinolin-5-yl)ethyl)amino)butyl)carbamoyl)phenyl)-2-phenylacetate diformate] | < 0.3 nM | 0.3 to 3 nM
12 | O=C(NCCCNC(=O)c1cccc(C(O)(C(=O)OCC2CCN(Cc3ccccc3)CC2)c2ccccc2)c1)c1ccc(CNC[C@H](O)c2ccc(O)c3[nH]c(=O)ccc23)cc1 (stereo partly drawn) [Compound 50, (1-benzylpiperidin-4-yl)methyl 2-hydroxy-2-(3-((3-(4-((((R)-2-hydroxy-2-(8-hydroxy-2-oxo-1,2-dihydroquinolin-5-yl)ethyl)amino)methyl)benzamido)propyl)-carbamoyl)phenyl)-2-phenylacetate diformate] | > 3 nM | 0.3 to 3 nM
13 | O=C(OCC1CCN(Cc2ccccc2)CC1)C(O)(c1ccccc1)c1ccc(OCCCCCNC[C@H](O)c2ccc(O)c3[nH]c(=O)ccc23)cc1 (stereo partly drawn) [Compound 51, (1-benzylpiperidin-4-yl)methyl 2-hydroxy-2-(4-((5-(((R)-2-hydroxy-2-(8-hydroxy-2-oxo-1,2-dihydroquinolin-5-yl)ethyl)amino)pentyl)oxy)phenyl)-2-phenylacetate diformate] | < 0.3 nM | 0.3 to 3 nM
14 | O=C(NCc1ccc(COc2ccc(C(O)(C(=O)OCC3CCN(Cc4ccccc4)CC3)c3ccccc3)cc2)cc1)c1ccc(CNC[C@H](O)c2ccc(O)c3[nH]c(=O)ccc23)cc1 (stereo partly drawn) [Compound 53, (1-benzylpiperidin-4-yl)methyl 2-hydroxy-2-(4-((4-((4-((((R)-2-hydroxy-2-(8-hydroxy-2-oxo-1,2-dihydroquinolin-5-yl)ethyl)amino)methyl)benzamido)methyl)-benzyl)oxy)phenyl)-2-phenylacetate diformate] | > 3 nM | > 3 nM
15 | O=C(Nc1cccc(C(O)(C(=O)OCC2CCN(Cc3ccccc3)CC2)c2ccccc2)c1)OCCCCCNC[C@H](O)c1ccc(O)c2[nH]c(=O)ccc12 (stereo partly drawn) [Compound 54, (1-benzylpiperidin-4-yl)methyl 2-hydroxy-2-(3-((((5-(((R)-2-hydroxy-2-(8-hydroxy-2-oxo-1,2-dihydroquinolin-5-yl)ethyl)amino)pentyl)oxy)carbonyl)amino)-phenyl)-2-phenylacetate bis hydrochloride] | < 0.3 nM | 0.3 to 3 nM
16 | O=C(NCCCNC(=O)c1ccc(CNC[C@H](O)c2ccc(O)c3[nH]c(=O)ccc23)cc1)Nc1cccc(C(O)(C(=O)OCC2CCN(Cc3ccccc3)CC2)c2ccccc2)c1 (stereo partly drawn) [Compound 56, (1-benzylpiperidin-4-yl)methyl 2-hydroxy-2-(3-(3-(3-(4-((((R)-2-hydroxy-2-(8-hydroxy-2-oxo-1,2-dihydroquinolin-5-yl)ethyl)amino)methyl)benzamido)-propyl)ureido)phenyl)-2-phenylacetate diformate] | > 3 nM | > 3 nM
17 | O=C(COc1cccc([C@](O)(C(=O)OCC2CCN(Cc3ccccc3)CC2)c2ccccc2)c1)NCCNC(=O)c1ccc(CNC[C@H](O)c2ccc(O)c3[nH]c(=O)ccc23)cc1 [Compound 57, (1-Benzylpiperidin-4-yl)methyl (S)-2-hydroxy-2-(3-(2-((2-(4-((((R)-2-hydroxy-2-(8-hydroxy-2-oxo-1,2-dihydroquinolin-5-yl)ethyl)amino)methyl)benzamido)ethyl)amino)-2-oxoethoxy)phenyl)-2-phenylacetate] | 0.3 to 3 nM | 0.3 to 3 nM
18 | O=C(COc1cccc([C@](O)(C(=O)OCC2CCN(Cc3ccccc3)CC2)c2ccccc2)c1)N1CCN(C(=O)c2ccc(CNC[C@H](O)c3ccc(O)c4[nH]c(=O)ccc34)cc2)CC1 [Compound 58, (1-benzylpiperidin-4-yl)methyl (S)-2-hydroxy-2-(3-(2-(4-(4-((((R)-2-hydroxy-2-(8-hydroxy-2-oxo-1,2-dihydroquinolin-5-yl)ethyl)amino)methyl)benzoyl)piperazin-1-yl)-2-oxoethoxy)phenyl)-2-phenylacetate] | 0.3 to 3 nM | 0.3 to 3 nM
19 | O=C(NC1CCN(C(=O)COc2cccc([C@](O)(C(=O)OCC3CCN(Cc4ccccc4)CC3)c3ccccc3)c2)CC1)c1ccc(CNC[C@H](O)c2ccc(O)c3[nH]c(=O)ccc23)cc1 [Compound 59, (1-benzylpiperidin-4-yl)methyl (S)-2-hydroxy-2-(3-(2-(4-(4-((((R)-2-hydroxy-2-(8-hydroxy-2-oxo-1,2-dihydroquinolin-5-yl)ethyl)amino)methyl)benzamido)piperidin-1-yl)-2-oxoethoxy)phenyl)-2-phenylacetate] | < 0.3 nM | 0.3 to 3 nM

Reference: patent publication US9579314B2 (priority 2015, dated 2017)
